For data set [1], the target named is T1, Beta-secretase 1 (Homo sapiens, UniProt P56817). As to the kind of experiment: Binding affinity to BACE1 at 2 mM by surface plasmon resonance assay.
For data set [2], the target named is T1, Beta-secretase 1. Kind of data set: Inhibition of BACE1 assessed as amyloid beta secretion by cell based assay.
Data set [3] is described as follows: Genotoxicity in Salmonella Typhimurium by Ames test. The data set is classed as toxicity. The conditions noted are these: salmonella enterica subsp. enterica serovar typhimurium. A general note: The Ames test detects mutagens through reverse mutation in bacteria.
In data set [4] the target is T2, Beta-secretase 2 (Homo sapiens, UniProt Q9Y5Z0).
T2 sequence (Q9Y5Z0 whole entry): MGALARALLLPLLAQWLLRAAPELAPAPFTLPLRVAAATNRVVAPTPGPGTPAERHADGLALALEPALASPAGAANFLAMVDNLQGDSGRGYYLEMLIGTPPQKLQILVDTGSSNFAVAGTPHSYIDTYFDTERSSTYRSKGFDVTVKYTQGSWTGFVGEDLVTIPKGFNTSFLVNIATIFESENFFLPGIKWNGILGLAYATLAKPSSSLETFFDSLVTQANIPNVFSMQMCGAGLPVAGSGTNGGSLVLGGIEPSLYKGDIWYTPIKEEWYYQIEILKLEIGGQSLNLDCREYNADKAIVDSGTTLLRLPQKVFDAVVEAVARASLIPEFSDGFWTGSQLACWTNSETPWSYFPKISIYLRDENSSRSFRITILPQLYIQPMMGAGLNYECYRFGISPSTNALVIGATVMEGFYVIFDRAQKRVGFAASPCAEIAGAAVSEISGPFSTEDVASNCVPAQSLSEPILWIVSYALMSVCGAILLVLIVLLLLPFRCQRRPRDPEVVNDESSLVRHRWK
Kind of data set: Inhibition of human BACE2.

Data set [5] can be described thus: Half life in rat liver microsomes. The data set is classed as ADME, Microsome.
Data set [6] deals with Cathepsin D (Homo sapiens, UniProt P07339). As to the kind of experiment: Inhibition of cathepsin D.
Data set [7] can be described thus: Genotoxicity in Salmonella Typhimurium by Ames test in presence of S9 liver microsomes. It is filed as toxicity, Microsome. To be noted: salmonella enterica subsp. enterica serovar typhimurium.
A short description of data set [8]: Half life in human liver microsomes. The data set is classed as ADME, Microsome. Background: Liver microsomes are a subcellular fraction often used to study metabolism.
The nature of data set [9]: Maximum drug flux by PAMPA. The data set is classed as ADME.
The target in data set [10] is Voltage-gated inwardly rectifying potassium channel KCNH2 (Homo sapiens, UniProt Q12809). As to the kind of experiment: Inhibition of human ERG.
Sequence of Voltage-gated inwardly rectifying potassium channel KCNH2 (Q12809 whole entry): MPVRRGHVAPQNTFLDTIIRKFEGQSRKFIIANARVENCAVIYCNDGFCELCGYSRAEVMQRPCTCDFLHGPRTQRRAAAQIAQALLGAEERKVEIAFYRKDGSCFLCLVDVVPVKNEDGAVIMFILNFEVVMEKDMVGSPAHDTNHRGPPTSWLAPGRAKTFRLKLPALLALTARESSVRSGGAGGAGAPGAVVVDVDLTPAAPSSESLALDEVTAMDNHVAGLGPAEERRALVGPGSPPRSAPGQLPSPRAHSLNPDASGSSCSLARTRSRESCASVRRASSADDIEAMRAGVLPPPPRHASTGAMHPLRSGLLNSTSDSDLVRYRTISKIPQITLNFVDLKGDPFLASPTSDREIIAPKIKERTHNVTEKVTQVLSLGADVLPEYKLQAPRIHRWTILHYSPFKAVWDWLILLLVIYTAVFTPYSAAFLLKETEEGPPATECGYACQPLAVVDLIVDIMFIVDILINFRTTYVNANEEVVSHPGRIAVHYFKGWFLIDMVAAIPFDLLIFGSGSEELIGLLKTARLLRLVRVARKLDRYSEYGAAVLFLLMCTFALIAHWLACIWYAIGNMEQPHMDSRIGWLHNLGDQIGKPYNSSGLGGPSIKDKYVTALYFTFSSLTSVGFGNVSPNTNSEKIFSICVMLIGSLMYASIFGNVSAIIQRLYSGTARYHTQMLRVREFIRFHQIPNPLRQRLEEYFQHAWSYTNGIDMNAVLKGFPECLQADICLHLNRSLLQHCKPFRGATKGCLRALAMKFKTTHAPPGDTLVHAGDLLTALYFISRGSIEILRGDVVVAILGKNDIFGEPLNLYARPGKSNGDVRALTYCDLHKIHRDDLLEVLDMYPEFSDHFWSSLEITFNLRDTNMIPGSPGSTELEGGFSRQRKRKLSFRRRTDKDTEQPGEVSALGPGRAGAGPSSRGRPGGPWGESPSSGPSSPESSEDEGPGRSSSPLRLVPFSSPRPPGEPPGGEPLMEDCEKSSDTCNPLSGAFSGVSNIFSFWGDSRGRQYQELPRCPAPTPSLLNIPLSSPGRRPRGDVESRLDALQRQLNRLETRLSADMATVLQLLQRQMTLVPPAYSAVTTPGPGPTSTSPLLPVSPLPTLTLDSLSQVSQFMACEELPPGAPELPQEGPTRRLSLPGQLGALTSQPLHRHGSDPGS

T1 sequence (P56817 whole entry): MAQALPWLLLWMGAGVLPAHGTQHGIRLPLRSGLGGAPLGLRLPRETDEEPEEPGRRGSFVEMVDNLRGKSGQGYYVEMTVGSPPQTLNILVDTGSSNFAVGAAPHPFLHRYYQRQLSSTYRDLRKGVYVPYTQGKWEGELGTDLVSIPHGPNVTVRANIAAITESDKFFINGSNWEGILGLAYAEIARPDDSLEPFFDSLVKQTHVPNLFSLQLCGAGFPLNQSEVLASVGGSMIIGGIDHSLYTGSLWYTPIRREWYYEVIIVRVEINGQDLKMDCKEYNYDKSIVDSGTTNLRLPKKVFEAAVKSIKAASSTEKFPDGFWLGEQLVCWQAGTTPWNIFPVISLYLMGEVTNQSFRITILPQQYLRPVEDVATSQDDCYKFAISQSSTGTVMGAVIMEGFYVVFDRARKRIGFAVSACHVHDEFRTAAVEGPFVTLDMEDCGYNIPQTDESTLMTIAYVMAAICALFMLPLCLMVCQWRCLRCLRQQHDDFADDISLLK
Sequence of Cathepsin D (P07339 65-162 limits assumed): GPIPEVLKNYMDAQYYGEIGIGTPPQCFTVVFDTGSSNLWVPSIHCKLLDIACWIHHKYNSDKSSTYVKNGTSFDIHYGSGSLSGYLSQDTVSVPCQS
Sequence of Cathepsin D (P07339 169-412 limits assumed): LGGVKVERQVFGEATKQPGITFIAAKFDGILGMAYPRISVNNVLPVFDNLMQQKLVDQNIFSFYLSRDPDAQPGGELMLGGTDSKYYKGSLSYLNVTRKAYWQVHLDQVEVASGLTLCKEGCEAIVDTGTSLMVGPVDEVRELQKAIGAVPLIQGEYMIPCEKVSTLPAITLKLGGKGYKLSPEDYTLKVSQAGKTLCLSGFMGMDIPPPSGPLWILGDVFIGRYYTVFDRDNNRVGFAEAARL

By inhibition is commonly meant the share of the control response that was lost under treatment. One may read the IC50 as the concentration needed to halve the response being measured. `c1cnc2ncc(-c3ccncc3)n2c1` returned an inhibition in [1] of 20%. Further, in [2], the 50% inhibitory concentration (IC50) turned out to be 1010 µM.
In the case of `CC(C)C[C@@H](CC(=O)NC(C)C)n1c(N)nc2cc(Cl)ccc21`, the IC50 in [2] came out at 246 µM.
Same read-out and setting: next, `CC[C@H](CC(=O)NCc1ccccc1)n1c(N)nc2cc(Cl)ccc21`: 516 µM.
`Nc1nc2cc(Cl)ccc2n1CCCO` displayed an inhibition in data set [1] of 63%. The IC50 in [2] was 770 µM.
As to `CC[C@@H](CC(=O)NCCC1CCNC1)n1c(N)nc2cc(Cl)ccc21` (stereo not given in full), the IC50 in [2] was 270 µM.
The same measure, in the same setting: next, `CN1CCC(NC(=O)CCCn2c(N)nc3cc(Cl)ccc32)CC1`: 325 µM; `CC(C)C[C@@H](CC(=O)NCc1cccc(F)c1)n1c(N)nc2cc(Cl)ccc21`: 54 µM.
Still for that read-out and setting: next, `CC(C)C[C@@H](CC(=O)NCc1ccccn1)n1c(N)nc2cc(Cl)ccc21`: 235 µM; `CC[C@@H](CC(=O)N(C)CC1CCCCC1)n1c(N)nc2cc(Cl)ccc21`: 375 µM; `CC[C@@H](CC(=O)NCCC(C)(C)C)n1c(N)nc2cc(Cl)ccc21`: 95 µM.
Same read-out and setting: next, `Nc1nc2cc(Cl)ccc2n1CCCC(=O)NCCN1CCOCC1`: 827 µM; `Nc1nc2cc(Cl)ccc2n1CCCC(=O)NCCC1CCNC1` (stereo not given): 444 µM; `CC[C@@H](CC(=O)NCCN1CCOCC1)n1c(N)nc2cc(Cl)ccc21`: 440 µM.
With `Nc1nc2ccc(Cl)cc2[nH]1`, in data set [1], the inhibition amounted to 34%. Besides, the IC50 in data set [2] came to 731 µM.
`Nc1nc2cc(Cl)ccc2n1CCCC(=O)NCC1CC1`: the IC50 in data set [2] was found to be 2850 µM.
For `Nc1nc2cc(Cl)ccc2n1CCCC(=O)NCc1cccc(F)c1`, the 50% inhibitory concentration (IC50) in [2] was 249 µM.
In turn, `O=C1c2ccccc2C(=O)C1(O)O` yielded an inhibition in [1] of 27%. Moreover, the IC50 in [2] was found to be 776 µM.
On the same counts, the results for `COn1c(-c2ccccc2)nc2ncccc21` are 36% and 928 µM.
In the case of `CC(C)C[C@H](CC(=O)NC(C)C)n1c(N)nc2cc(Cl)ccc21`, the IC50 in data set [2] was above 1000 µM.
As usually defined, the half-life is the time needed for the level to fall by half in the phase considered. Regarding `CC[C@@H](CC(=O)NCC1CCCCC1)n1c(N)nc2cc(Cl)ccc21`, the Activity entry in data set [3] is recorded as “Non-toxic”; in data set [7] it was “Non-toxic”; in [9], 12%. Moreover, the IC50 in [4] was 8 µM; in data set [6] it was 42 µM; in [10], 7.5 µM. Further, the half-life in data set [5] was found to be 6.7 min; in data set [8], 5.5 min.
In the case of `CC[C@@H](CC(=O)NCc1cccc(F)c1)n1c(N)nc2cc(Cl)ccc21`, the IC50 in [2] turned out to be 340 µM.
Same read-out and setting: the same measure for `CC[C@@H](CC(=O)NCC1CC1)n1c(N)nc2cc(Cl)ccc21`: 243 µM; for `CC(C)NC(=O)CCCn1c(N)nc2cc(Cl)ccc21`: 193 µM; for `CC[C@@H](CC(=O)NCc1ccccn1)n1c(N)nc2cc(Cl)ccc21`: above 1000 µM.
Turning to `Nc1nc2cc(Cl)ccc2n1CCCC(=O)NCC1CCCCC1`, in data set [2], the IC50 was found to be 83 µM.
For `Nc1nc2cc(Cl)ccc2n1CCCC(=O)NCc1ccccn1`, the IC50 in data set [2] stood at 426 µM.
In the case of `CC[C@@H](CC(=O)N[C@H](COC(C)(C)C)C(=O)OC)n1c(N)nc2cc(Cl)ccc21`, the IC50 in data set [2] came to 75 µM.
As for `Clc1cccc(-c2cnc3ncccn23)c1`, in data set [1], the inhibition was determined as 29%. Besides, in [2], the IC50 came to 862 µM.
With `CC[C@@H](CC(=O)NCc1ccccc1)n1c(N)nc2cc(Cl)ccc21`, the IC50 in data set [2] was determined as 72 µM.
Consider `CN(CC1CCCCC1)C(=O)CCCn1c(N)nc2cc(Cl)ccc21`, for which the IC50 in [2] is 59 µM.
The same measure, in the same setting: next, `CC[C@@H](CC(=O)N[C@@H](COC(C)(C)C)C(=O)O)n1c(N)nc2cc(Cl)ccc21`: 87 µM; `CC[C@@H](CC(=O)N[C@@H](COC(C)(C)C)C(=O)OC)n1c(N)nc2cc(Cl)ccc21`: 168 µM.
Consider `CC[C@@H](CC(=O)NC(C)C)n1c(N)nc2cc(Cl)ccc21`, for which the IC50 in [2] is 695 µM.
On to `CC[C@@H](CC(=O)NCc1ccc(F)cc1)n1c(N)nc2cc(Cl)ccc21`, for which the half-inhibitory concentration (IC50) in data set [2] is 264 µM.
Same read-out and setting: next, `CN(Cc1cccc(F)c1)C(=O)CCCn1c(N)nc2cc(Cl)ccc21`: 194 µM; `CC[C@@H](CC(=O)NCC1CCOCC1)n1c(N)nc2cc(Cl)ccc21`: above 1000 µM.
For the compound `Nc1nc2cc(Cl)ccc2n1CCCC(=O)NCc1ccccc1`, the IC50 in data set [2] was found to be 1400 µM.

(Values after ChEMBL document CHEMBL1221253, “Fragment-based discovery and optimization of BACE1 inhibitors” (Bioorg Med Chem Lett, 2010).)
